Assays:
[1] = target: T1, human type 1 prolyl 4-hydroxylase tetramer (α12β2) (Homo sapiens, UniProt P13674); test: Prolyl 4-hydroxylase activity assay (decarboxylation of 2-oxo[1-14C]glutarate), type 1 enzyme; assay type: biochemical; details: α12β2, recombinant enzyme from insect cells, 0.1% Triton X-100 extract
T1 construct: made in house; host or cells: Spodoptera frugiperda Sf9 insect cells (baculovirus co-infection); 0.1% Triton X-100 extract
Method: (§1) A recombinant baculovirus coding for the mouse α2 subunit was generated and used to infect S. frugiperda insect cells with or without the human PDI/β subunit, wherein the insect cells were infected at a multiplicity of 5. For production of an enzyme tetramer, the human α59 1 (see, Vuori, et al., supra) or mouse α2 viruses and the PDI/β viruses (id.) were used in a 1:1 or 2:1 ratio. […] The resulting supematants were analyzed by SDS/8% PAGE or nondenaturing 7.5% PAGE and assayed for enzyme activities. The cell pellets were further solubilized in 1% SDS, and the 0.1% Triton X-100-soluble and 1% SDS-soluble proteins were analyzed by SDS/PAGE under reducing for the α1 subunit of prolyl 4-hydroxylase (Veijola et al., supra; Vuori et al., supra; John et al. […] The 0.1% Triton X-100 extracts from cell homogenates containing either the mouse-human type II or the human type I enzyme were analyzed for prolyl 4-hydroxylase activity with an assay based on the hydroxylation-coupled decarbosylation of 2-oxo[1^14C]glutarate (Kivirikko and Myllyla, supra).

[2] = target: T2, mouse/human type 2 prolyl 4-hydroxylase tetramer (α22β2) (Mus musculus, UniProt Q60716); test: Prolyl 4-hydroxylase activity assay (decarboxylation of 2-oxo[1-14C]glutarate), type 2 enzyme; assay type: biochemical; details: for IC50: α22β2, footnote: values determined as IC50, read-out: Ki column, values determined as IC50
T2 construct: the cDNA clones, considered in combination, cover the whole coding region of the mouse α2 subunit; made in house; host or cells: Spodoptera frugiperda Sf9 insect cells (baculovirus pVL1392 construct, co-infection with PDI/β virus); 0.1% Triton X-100 extract
Method: as §1

[3] = α22β2 (mouse α2, human PDI/β), recombinant enzyme from insect cells

T1 sequence (P13674 18-534): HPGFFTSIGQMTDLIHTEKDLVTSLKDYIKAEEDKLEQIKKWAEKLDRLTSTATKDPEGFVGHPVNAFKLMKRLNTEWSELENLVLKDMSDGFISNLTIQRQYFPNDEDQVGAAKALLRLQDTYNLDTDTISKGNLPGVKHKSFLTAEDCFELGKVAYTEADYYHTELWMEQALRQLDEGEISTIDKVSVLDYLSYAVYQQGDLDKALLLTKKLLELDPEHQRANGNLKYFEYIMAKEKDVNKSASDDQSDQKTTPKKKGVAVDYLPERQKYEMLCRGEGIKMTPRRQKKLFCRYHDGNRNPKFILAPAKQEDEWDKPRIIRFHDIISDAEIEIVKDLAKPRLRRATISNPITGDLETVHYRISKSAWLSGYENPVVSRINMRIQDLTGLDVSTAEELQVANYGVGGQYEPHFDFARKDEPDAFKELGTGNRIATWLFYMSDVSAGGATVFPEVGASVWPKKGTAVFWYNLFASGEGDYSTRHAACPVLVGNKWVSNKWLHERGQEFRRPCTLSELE
T1 sequence (P07237 18-508 partner): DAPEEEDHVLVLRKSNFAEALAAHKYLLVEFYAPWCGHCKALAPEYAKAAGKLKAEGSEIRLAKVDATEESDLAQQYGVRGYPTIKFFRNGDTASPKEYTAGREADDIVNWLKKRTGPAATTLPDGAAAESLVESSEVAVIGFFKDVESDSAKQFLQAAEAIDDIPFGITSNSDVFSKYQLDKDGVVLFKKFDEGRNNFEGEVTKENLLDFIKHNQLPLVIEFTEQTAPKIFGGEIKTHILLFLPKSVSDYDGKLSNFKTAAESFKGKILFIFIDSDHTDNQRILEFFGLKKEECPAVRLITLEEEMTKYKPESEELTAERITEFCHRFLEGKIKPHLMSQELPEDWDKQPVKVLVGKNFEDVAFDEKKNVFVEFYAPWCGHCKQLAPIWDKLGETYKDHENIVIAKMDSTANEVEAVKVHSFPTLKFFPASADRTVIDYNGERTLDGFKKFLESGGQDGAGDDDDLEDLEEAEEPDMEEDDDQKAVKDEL
T2 sequence (Q60716 20-537 limits assumed): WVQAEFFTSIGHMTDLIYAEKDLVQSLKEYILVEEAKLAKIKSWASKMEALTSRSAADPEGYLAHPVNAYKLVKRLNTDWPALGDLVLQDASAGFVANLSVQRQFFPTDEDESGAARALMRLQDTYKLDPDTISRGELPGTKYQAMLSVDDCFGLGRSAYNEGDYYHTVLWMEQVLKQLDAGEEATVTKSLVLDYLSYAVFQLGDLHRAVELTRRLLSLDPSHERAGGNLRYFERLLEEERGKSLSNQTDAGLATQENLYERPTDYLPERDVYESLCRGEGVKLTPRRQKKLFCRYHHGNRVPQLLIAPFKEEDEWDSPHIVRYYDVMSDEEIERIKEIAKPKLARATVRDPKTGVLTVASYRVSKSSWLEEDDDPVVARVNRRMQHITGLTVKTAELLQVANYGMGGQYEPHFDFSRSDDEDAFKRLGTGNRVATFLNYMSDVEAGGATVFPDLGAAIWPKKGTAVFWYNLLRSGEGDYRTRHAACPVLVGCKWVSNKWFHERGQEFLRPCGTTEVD
T2 sequence (P07237 18-508 partner): as the sequence (P07237 18-508 partner) above

Compound | Km [1] [µM] | Km [2, 3] [µM] | Ki [1] [nM] | also measured
O=C(O)CCC(=O)C(=O)O [2-Oxoglutatrate, 2-oxoglutarate] | 22 | 12 |  | 
[Fe+2] [Fe^2+] | 4 | 4 |  | 
O=C(O)c1ccnc(C(=O)O)c1 [Pyridine-2,4-dicarboxylate] |  |  | 2000 | Ki [2, 3]: 1000 nM
(Pro-Pro-Gly)10 [(Pro--Pro--Gly)] | 18 | 45 |  | 
Poly(t-proline), Mt 44,000 |  |  | 20 | IC50 [2]: 30000 nM
Poly(t-proline), Mt 7000 |  |  | 500 | IC50 [2]: 300000 nM
poly (L-proline) |  |  |  | inhibition of the type 2 enzyme ([2]; type 2 enzyme compared with type 1): inhibited by poly (L-proline) only at very high concentrations

Source: patent US20020177203A1, “Alpha2 subunit of prolyl 4-hydroxylase” (priority 1996, published 2002)
